Measurements as given in US7183061B2, “Method of expressing Heliothis ecdysone receptor fusion protein” (Syngenta Limited, priority 1996, dated 2007).

Key:
[1] = target: T1, glucocorticoid/Heliothis ecdysone chimeric receptor (UniProt O18473+P04150); assay: Maize protoplast GUS reporter assay with pMF6GRHEcR and p221.9GRE6; type: cell-based, Heliothis virescens; set-up: expressed in transfected cells; host or cells: maize protoplasts (A5); tobacco mesophyll protoplasts (A6); CHO-K1 (A7); HEK293 (A8); stably transformed tobacco plants (A9); settings: maize protoplasts
T1 sequence (P04150+O18473 with tags, fused parts or gaps): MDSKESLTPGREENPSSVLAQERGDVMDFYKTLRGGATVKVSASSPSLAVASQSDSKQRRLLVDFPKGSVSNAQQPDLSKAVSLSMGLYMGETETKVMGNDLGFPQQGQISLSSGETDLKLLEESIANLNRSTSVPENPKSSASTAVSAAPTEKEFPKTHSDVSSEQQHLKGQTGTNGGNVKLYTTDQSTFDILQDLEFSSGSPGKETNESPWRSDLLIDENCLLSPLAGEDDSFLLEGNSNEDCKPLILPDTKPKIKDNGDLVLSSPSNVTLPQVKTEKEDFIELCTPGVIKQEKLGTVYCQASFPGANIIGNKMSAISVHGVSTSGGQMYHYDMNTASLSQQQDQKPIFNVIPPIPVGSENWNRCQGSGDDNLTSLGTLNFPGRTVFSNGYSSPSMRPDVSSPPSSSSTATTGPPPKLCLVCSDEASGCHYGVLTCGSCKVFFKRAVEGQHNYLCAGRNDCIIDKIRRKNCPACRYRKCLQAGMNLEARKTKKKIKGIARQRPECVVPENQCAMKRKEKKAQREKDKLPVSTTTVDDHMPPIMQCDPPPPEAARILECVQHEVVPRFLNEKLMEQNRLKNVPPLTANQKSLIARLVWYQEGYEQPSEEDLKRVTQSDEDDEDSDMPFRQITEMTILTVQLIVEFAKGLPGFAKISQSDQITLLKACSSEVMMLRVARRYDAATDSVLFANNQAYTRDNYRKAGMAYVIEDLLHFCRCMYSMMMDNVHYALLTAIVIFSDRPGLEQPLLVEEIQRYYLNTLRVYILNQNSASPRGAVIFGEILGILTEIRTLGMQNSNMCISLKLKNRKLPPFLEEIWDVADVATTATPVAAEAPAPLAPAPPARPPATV
Protocol: Protoplasts were isolated from a maize suspension culture derived from BE70×A188 embryogenic callus material, which was maintained by subculturing twice weekly in MS0.5mod. (MS medium supplemented with 3% sucrose, 690 mg/l proline, 1 g/l myo-inositol, 0.2 g/l casein acid hydrolysate, 0.5 mg/l 2,4-D, pH 5.6). Cells from suspensions two days post subculture were digested in enzyme mixture (2.0% Cellulase RS, 0.2% Pectolyase Y23, 0.5 M Mannitol, 5 mM CaCl2.2H2O, 0.5% MES, pH 5.6, ˜660 mmol/kg) using ˜10 ml/g cells, incubating at 25° C., dim light, rotating gently for ˜2 hours. The digestion mixture was sieved sequentially through 250 μm and 38 μm sieves, and the filtrate centrifuged at 700 rpm for 3.5 minutes, discarding the supernatant. The protoplasts were resuspended in wash buffer (0.358 M KCl, 1.0 mM NH4NO3, 5.0 mM CaCl2.2H2O, 0.5 mM KH2PO4, pH 4.8, ˜670 mmol/kg) and pelleted as before. This washing step was repeated. The pellet was resuspended in wash buffer and the protoplasts were counted. Transformation was achieved using a Polyethylene glycol method based on Negrutiu et al. Protoplasts were resuspended at 2×10^6/ml in MaMg medium (0.4 M Mannitol, 15 mM MgCl2, 0.1% MES, pH 5.6, ˜450 mmol/kg) aliquotting 0.5 ml/treatment (i.e. 1×10^6 protoplasts/treatment). Samples were heat shocked at 45° C. for 5 minutes then cooled to room temperature. […]

[2] = target: T2, glucocorticoid/Drosophila ecdysone chimeric receptor (UniProt P04150+P34021); assay: Maize protoplast GUS reporter assay with pMF6GREcRS and p221.9GRE6; type: cell-based; settings: maize protoplasts, reporter plus effector
T2 construct: expressed in transfected cells; host or cells: maize suspension-culture protoplasts
T2 sequence (P04150+P34021 with tags, fused parts or gaps): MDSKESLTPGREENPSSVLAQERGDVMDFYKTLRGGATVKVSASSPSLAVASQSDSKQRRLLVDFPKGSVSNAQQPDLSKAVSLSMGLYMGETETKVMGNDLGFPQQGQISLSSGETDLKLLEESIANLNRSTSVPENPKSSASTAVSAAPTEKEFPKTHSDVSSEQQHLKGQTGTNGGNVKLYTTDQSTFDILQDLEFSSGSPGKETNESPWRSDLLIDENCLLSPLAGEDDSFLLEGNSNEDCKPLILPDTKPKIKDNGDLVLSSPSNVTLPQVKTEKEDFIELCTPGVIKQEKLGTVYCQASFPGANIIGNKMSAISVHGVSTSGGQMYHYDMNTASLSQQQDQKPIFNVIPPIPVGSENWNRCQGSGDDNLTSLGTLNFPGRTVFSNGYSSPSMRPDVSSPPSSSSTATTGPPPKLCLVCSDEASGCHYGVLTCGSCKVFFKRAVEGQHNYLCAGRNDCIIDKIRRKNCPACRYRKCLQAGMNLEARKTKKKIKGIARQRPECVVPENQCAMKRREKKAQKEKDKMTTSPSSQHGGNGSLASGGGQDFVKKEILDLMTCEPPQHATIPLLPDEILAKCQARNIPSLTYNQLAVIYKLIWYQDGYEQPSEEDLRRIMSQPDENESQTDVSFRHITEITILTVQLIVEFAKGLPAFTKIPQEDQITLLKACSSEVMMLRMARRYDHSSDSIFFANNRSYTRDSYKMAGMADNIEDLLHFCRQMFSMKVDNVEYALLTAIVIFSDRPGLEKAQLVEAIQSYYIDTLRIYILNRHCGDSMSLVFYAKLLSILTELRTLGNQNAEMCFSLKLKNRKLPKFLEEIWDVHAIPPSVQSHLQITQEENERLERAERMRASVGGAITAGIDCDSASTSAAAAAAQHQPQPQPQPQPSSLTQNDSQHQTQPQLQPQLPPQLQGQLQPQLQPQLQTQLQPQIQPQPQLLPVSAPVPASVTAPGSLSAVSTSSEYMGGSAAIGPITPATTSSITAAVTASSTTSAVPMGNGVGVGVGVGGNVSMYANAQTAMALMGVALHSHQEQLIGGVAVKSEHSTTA
Protocol: Protoplasts were isolated from a maize suspension culture derived from BE70×A188 embryogenic callus material, which was maintained by subculturing twice weekly in MS0.5mod. (MS medium supplemented with 3% sucrose, 690 mg/l proline, 1 g/l myo-inositol, 0.2 g/l casein acid hydrolysate, 0.5 mg/l 2,4-D, pH 5.6). Cells from suspensions two days post subculture were digested in enzyme mixture (2.0% Cellulase RS, 0.2% Pectolyase Y23, 0.5 M Mannitol, 5 mM CaCl2.2H2O, 0.5% MES, pH 5.6, ˜660 mmol/kg) using ˜10 ml/g cells, incubating at 25° C., dim light, rotating gently for ˜2 hours. The digestion mixture was sieved sequentially through 250 μm and 38 μm sieves, and the filtrate centrifuged at 700 rpm for 3.5 minutes, discarding the supernatant. The protoplasts were resuspended in wash buffer (0.358 M KCl, 1.0 mM NH4NO3, 5.0 mM CaCl2.2H2O, 0.5 mM KH2PO4, pH 4.8, ˜670 mmol/kg) and pelleted as before. This washing step was repeated. The pellet was resuspended in wash buffer and the protoplasts were counted. Transformation was achieved using a Polyethylene glycol method based on Negrutiu et al. Protoplasts were resuspended at 2×10^6/ml in MaMg medium (0.4 M Mannitol, 15 mM MgCl2, 0.1% MES, pH 5.6, ˜450 mmol/kg) aliquotting 0.5 ml/treatment (i.e. 1×10^6 protoplasts/treatment). Samples were heat shocked at 45° C. for 5 minutes then cooled to room temperature. 10 μg each of p221.9GRE6 and pMF6HR1PAT (GR) (1 mg/ml)/treatment were added and mixed in gently, followed by immediate addition of 0.5 ml warm (˜45° C.) PEG solution (40% PEG 3,350 MW in 0.4 M Mannitol, 0.1 M Ca(NO3)2, pH 8.0), which was mixed in thoroughly but gently. Treatments were incubated at room temperature for 20–25 minutes, then 5 ml 0.292 M KCl (pH 5.6, ˜530 mmol/kg) was added step-wise, 1 ml at a time, with mixing. The treatments were incubated for a further 10–15 minutes prior to pelleting the protoplasts by centrifuging as before. […] Protein concentrations of tissue homogenates were determined by the Bio-Rad protein assay (Bradford, 1976). […]

SMILES | chemical induced reporter gene activity ([1]; concentration not printed (FIG. 20)) | chemical induced reporter gene activity / induced levels of expression ([2]; concentration not given) | response of reporter ([1]; 100 μM) | marker gene activity ([2]; 100 μM)
CCc1ccc(C(=O)NN(C(=O)c2cc(C)cc(C)c2)C(C)(C)C)cc1 [RH5992, 3,5-dimethylbenzoic acid 1-1(1,1-dimethylethyl)-2(4-ethylbenzoyl)hydrazide] | significant chemical induced reporter gene activity | no chemical induced reporter gene activity |  | 
CC(C)CC[C@@H](O)[C@](C)(O)[C@H]1CC[C@@]2(O)C3=CC(=O)[C@]4(O)C[C@@H](O)[C@@H](O)C[C@]4(C)[C@H]3[C@H](O)C[C@]12C [Muristerone A] |  |  | no response | significant elevation of marker gene activity
